Experiments:
LNCaP/AR(cs) cells = test: Endogenous gene transcriptional assay (real-time PCR of androgen responsive genes); assay type: cell-based, human;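 on ORM1 expression, agonist transcription: LNCaP/AR(cs) cells without added R1881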;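 on PLD1 expression, agonist transcription: LNCaP/AR(cs) cells without added R1881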;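 on PSA expression, agonist transcription: LNCaP/AR(cs) cells without added R1881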;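 on SLUG expression, agonist transcription: LNCaP/AR(cs) cells without added R1881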;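 on TMPRSS2 expression, agonist transcription: LNCaP/AR(cs) cells without added R1881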
LNCaP ARN-509r2 cells = test: as above; assay type: cell-based, human; conditions: 1 nM R1881 or 30 μM compound, vehicle=1.00
Description: Total RNA was isolated using the Aurum™ total RNA isolation kit (BIO-RAD, Hercules, Calif.). RNA (1 μg) was reverse transcribed using the iScript cDNA synthesis kit (BIO-RAD, Hercules, Calif.) to produce cDNA. Real-time PCR was performed using the Applied Biosystems 7900HT instrument and SYBR Green PCR Master Mix (Applied Biosystems, Foster City, Calif.). PCR reactions were performed in 6 μL according to the manufacturer's protocol and a thermocycle protocol of 95° C. for 10 minutes followed by 40 cycles of 95° C. for 15 seconds and 58° C. for 1 minute. Androgen responsive gene (PSA, SLUG, TMPRSS2, STEAP4, FKBP5, ORM1, NOV, FASN, NKX3.1, AMIGO2, BDNF, CAMK2N1, HPGD, NCAPD3, PLD1) expression was normalized to GAPDH expression and expressed relative to vehicle treatment of the parental cell line.
Gene expression was normalized to GAPDH as described above.

[1] = Table 4A, 1 nM R1881 or 30 μM compound, vehicle=1.00

CNC(=O)c1ccc(N2C(=S)N(c3cnc(C#N)c(C(F)(F)F)c3)C(=O)C23CCC3)cc1F [ARN-509]
STEAP4 gene expression (LNCaP/AR(cs) cells; [1]): 0.90 | TMPRSS2 gene expression (LNCaP/AR(cs) cells; [1]): 1.06 | AMIGO2 expression, agonist transcription (LNCaP/AR(cs) cells; −R1881, 0.3 μM): 1.14 | BDNF expression, agonist transcription (LNCaP/AR(cs) cells; −R1881, 0.3 μM): 1.15 | CAM2KN1 expression, agonist transcription (LNCaP/AR(cs) cells; −R1881, 0.3 μM): 0.90 | FASN expression, agonist transcription (LNCaP/AR(cs) cells; −R1881, 0.3 μM): 0.46 | FKBP5 expression, agonist transcription (LNCaP/AR(cs) cells; −R1881, 0.3 μM): 0.99 | HPGD expression, agonist transcription (LNCaP/AR(cs) cells; −R1881, 0.3 μM): 0.81 | NCAPD3 expression, agonist transcription (LNCaP/AR(cs) cells; −R1881, 0.3 μM): 0.72 | NKX3.1 expression, agonist transcription (LNCaP/AR(cs) cells; −R1881, 0.3 μM): 1.11 | NOV expression, agonist transcription (LNCaP/AR(cs) cells; −R1881, 0.3 μM): 1.12 | ORM1 expression, agonist transcription (LNCaP/AR(cs) cells; −R1881, 0.3 μM): 1.37 | PLD1 expression, agonist transcription (LNCaP/AR(cs) cells; −R1881, 0.3 μM): 1.28 | PSA expression, agonist transcription (LNCaP/AR(cs) cells; −R1881, 0.3 μM): 0.44 | SLUG expression, agonist transcription (LNCaP/AR(cs) cells; −R1881, 0.3 μM): 0.38 | STEAP4 expression, agonist transcription (LNCaP/AR(cs) cells; −R1881, 0.3 μM): 0.94 | TMPRSS2 expression, agonist transcription (LNCaP/AR(cs) cells; −R1881, 0.3 μM): 0.99 | AMIGO2 expression, agonist transcription (LNCaP/AR(cs) cells; −R1881, 1 μM): 0.69 | BDNF expression, agonist transcription (LNCaP/AR(cs) cells; −R1881, 1 μM): 0.93 | CAM2KN1 expression, agonist transcription (LNCaP/AR(cs) cells; −R1881, 1 μM): 0.76 | FASN expression, agonist transcription (LNCaP/AR(cs) cells; −R1881, 1 μM): 0.40 | FKBP5 expression, agonist transcription (LNCaP/AR(cs) cells; −R1881, 1 μM): 0.71 | HPGD expression, agonist transcription (LNCaP/AR(cs) cells; −R1881, 1 μM): 0.56 | NCAPD3 expression, agonist transcription (LNCaP/AR(cs) cells; −R1881, 1 μM): 0.74 | NKX3.1 expression, agonist transcription (LNCaP/AR(cs) cells; −R1881, 1 μM): 0.68 | NOV expression, agonist transcription (LNCaP/AR(cs) cells; −R1881, 1 μM): 1.00 | ORM1 expression, agonist transcription (LNCaP/AR(cs) cells; −R1881, 1 μM): 1.79 | PLD1 expression, agonist transcription (LNCaP/AR(cs) cells; −R1881, 1 μM): 0.66 | PSA expression, agonist transcription (LNCaP/AR(cs) cells; −R1881, 1 μM): 0.49 | SLUG expression, agonist transcription (LNCaP/AR(cs) cells; −R1881, 1 μM): 0.42 | STEAP4 expression, agonist transcription (LNCaP/AR(cs) cells; −R1881, 1 μM): 0.77 | TMPRSS2 expression, agonist transcription (LNCaP/AR(cs) cells; −R1881, 1 μM): 0.64 | AMIGO2 expression, agonist transcription (LNCaP/AR(cs) cells; −R1881, 3 μM): 0.89 | BDNF expression, agonist transcription (LNCaP/AR(cs) cells; −R1881, 3 μM): 1.03 | CAM2KN1 expression, agonist transcription (LNCaP/AR(cs) cells; −R1881, 3 μM): 0.99 | FASN expression, agonist transcription (LNCaP/AR(cs) cells; −R1881, 3 μM): 0.42 | FKBP5 expression, agonist transcription (LNCaP/AR(cs) cells; −R1881, 3 μM): 0.91 | HPGD expression, agonist transcription (LNCaP/AR(cs) cells; −R1881, 3 μM): 0.78 | NCAPD3 expression, agonist transcription (LNCaP/AR(cs) cells; −R1881, 3 μM): 0.73 | NKX3.1 expression, agonist transcription (LNCaP/AR(cs) cells; −R1881, 3 μM): 0.73 | NOV expression, agonist transcription (LNCaP/AR(cs) cells; −R1881, 3 μM): 1.11 | ORM1 expression, agonist transcription (LNCaP/AR(cs) cells; −R1881, 3 μM): 1.20 | PLD1 expression, agonist transcription (LNCaP/AR(cs) cells; −R1881, 3 μM): 0.88 | PSA expression, agonist transcription (LNCaP/AR(cs) cells; −R1881, 3 μM): 0.58 | SLUG expression, agonist transcription (LNCaP/AR(cs) cells; −R1881, 3 μM): 0.52 | STEAP4 expression, agonist transcription (LNCaP/AR(cs) cells; −R1881, 3 μM): 1.05 | TMPRSS2 expression, agonist transcription (LNCaP/AR(cs) cells; −R1881, 3 μM): 1.04 | AMIGO2 expression, agonist transcription (LNCaP/AR(cs) cells; −R1881, 10 μM): 0.65 | BDNF expression, agonist transcription (LNCaP/AR(cs) cells; −R1881, 10 μM): 1.03 | CAM2KN1 expression, agonist transcription (LNCaP/AR(cs) cells; −R1881, 10 μM): 0.78 | FASN expression, agonist transcription (LNCaP/AR(cs) cells; −R1881, 10 μM): 0.41 | FKBP5 expression, agonist transcription (LNCaP/AR(cs) cells; −R1881, 10 μM): 0.75 | HPGD expression, agonist transcription (LNCaP/AR(cs) cells; −R1881, 10 μM): 0.61 | NCAPD3 expression, agonist transcription (LNCaP/AR(cs) cells; −R1881, 10 μM): 0.74 | NKX3.1 expression, agonist transcription (LNCaP/AR(cs) cells; −R1881, 10 μM): 0.85 | NOV expression, agonist transcription (LNCaP/AR(cs) cells; −R1881, 10 μM): 0.98 | ORM1 expression, agonist transcription (LNCaP/AR(cs) cells; −R1881, 10 μM): 0.97 | PLD1 expression, agonist transcription (LNCaP/AR(cs) cells; −R1881, 10 μM): 0.65 | PSA expression, agonist transcription (LNCaP/AR(cs) cells; −R1881, 10 μM): 0.61 | SLUG expression, agonist transcription (LNCaP/AR(cs) cells; −R1881, 10 μM): 0.56 | STEAP4 expression, agonist transcription (LNCaP/AR(cs) cells; −R1881, 10 μM): 0.56 | TMPRSS2 expression, agonist transcription (LNCaP/AR(cs) cells; −R1881, 10 μM): 0.62 | AMIGO2 expression, agonist transcription (LNCaP/AR(cs) cells; −R1881, 30 μM): 2.41 | BDNF expression, agonist transcription (LNCaP/AR(cs) cells; −R1881, 30 μM): 1.80 | CAM2KN1 expression, agonist transcription (LNCaP/AR(cs) cells; −R1881, 30 μM): 1.56 | FASN expression, agonist transcription (LNCaP/AR(cs) cells; −R1881, 30 μM): 1.30 | FKBP5 expression, agonist transcription (LNCaP/AR(cs) cells; −R1881, 30 μM): 1.87 | HPGD expression, agonist transcription (LNCaP/AR(cs) cells; −R1881, 30 μM): 1.86 | NCAPD3 expression, agonist transcription (LNCaP/AR(cs) cells; −R1881, 30 μM): 1.34 | NKX3.1 expression, agonist transcription (LNCaP/AR(cs) cells; −R1881, 30 μM): 2.24 | NOV expression, agonist transcription (LNCaP/AR(cs) cells; −R1881, 30 μM): 2.07 | ORM1 expression, agonist transcription (LNCaP/AR(cs) cells; −R1881, 30 μM): 1.35 | PLD1 expression, agonist transcription (LNCaP/AR(cs) cells; −R1881, 30 μM): 1.33 | PSA expression, agonist transcription (LNCaP/AR(cs) cells; −R1881, 30 μM): 1.13 | SLUG expression, agonist transcription (LNCaP/AR(cs) cells; −R1881, 30 μM): 1.36 | STEAP4 expression, agonist transcription (LNCaP/AR(cs) cells; −R1881, 30 μM): 1.01 | TMPRSS2 expression, agonist transcription (LNCaP/AR(cs) cells; −R1881, 30 μM): 2.78 | AMIGO2 gene expression (LNCaP ARN-509r2 cells): 0.67 | BDNF gene expression (LNCaP ARN-509r2 cells): 1.04 | CAM2KN1 gene expression (LNCaP ARN-509r2 cells): 0.46 | FASN gene expression (LNCaP ARN-509r2 cells): 0.98 | FKBP5 gene expression (LNCaP ARN-509r2 cells): 8.00 | HPGD gene expression (LNCaP ARN-509r2 cells): 1.49 | NKX3.1 gene expression (LNCaP ARN-509r2 cells): 3.73 | NOV gene expression (LNCaP ARN-509r2 cells): 1.39 | ORM1 gene expression (LNCaP ARN-509r2 cells): 3.94 | PLD1 gene expression (LNCaP ARN-509r2 cells): 0.81 | PSA gene expression (LNCaP ARN-509r2 cells): 1.91 | SLUG gene expression (LNCaP ARN-509r2 cells): 1.31 | STEAP4 gene expression (LNCaP ARN-509r2 cells): 1.45 | TMPRSS2 gene expression (LNCaP ARN-509r2 cells): 3.07

— patent publication US9617602B2, “Methods and compositions for determining resistance to androgen receptor therapy” (Aragon Pharmaceuticals, Inc., priority 2012, dated 2017)
